Data as given in PubChem BioAssay AID1963826 (Molecular Pharmacology Branch, DTP, NCI, 2024).

Test system: 926638-142-R-J1-PDC complex spheroid viability
Assay: Anticancer human tumor 926638-142-R-J1-PDC patient-derived endometrial carcinoma cell line growth inhibition [POLQ]
Conditions: for IC50: curve of first compound; for viability, T/C: stronger effect = lower value
Method in brief: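 Complex spheroid viability model combining PDC tumour cells with endothelial (HUVEC) and MSC stromal cells. Novobiocin, ART-558 or RP6685 were tested singly and in combination with standard and investigational anticancer drugs. Each was titrated in half-log steps from near clinical Cmax, or from 10 microM where Cmax was unknown.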

[1] = second compound 0.0316 µM, first compound 0.0316 µM
[2] = second compound 0.0316 µM, first compound 0.1 µM
[3] = second compound 0.0316 µM, first compound 0.316 µM
[4] = second compound 0.0316 µM, first compound 1 µM
[5] = second compound 0.0316 µM, first compound 3.16 µM
[6] = second compound 0.0316 µM, first compound 10 µM
[7] = second compound 0.1 µM, first compound 0.0316 µM
[8] = second compound 0.1 µM, first compound 0.1 µM
[9] = second compound 0.1 µM, first compound 0.316 µM
[10] = second compound 0.1 µM, first compound 1 µM
[11] = second compound 0.1 µM, first compound 3.16 µM
[12] = second compound 0.1 µM, first compound 10 µM
[13] = second compound 0.316 µM, first compound 0.0316 µM
[14] = second compound 0.316 µM, first compound 0.1 µM
[15] = second compound 0.316 µM, first compound 0.316 µM
[16] = second compound 0.316 µM, first compound 1 µM
[17] = second compound 0.316 µM, first compound 3.16 µM
[18] = second compound 0.316 µM, first compound 10 µM
[19] = second compound 1 µM, first compound 0.0316 µM
[20] = second compound 1 µM, first compound 0.1 µM
[21] = second compound 1 µM, first compound 0.316 µM
[22] = second compound 1 µM, first compound 1 µM
[23] = second compound 1 µM, first compound 3.16 µM
[24] = second compound 1 µM, first compound 10 µM
[25] = second compound 3.16 µM, first compound 0.0316 µM
[26] = second compound 3.16 µM, first compound 0.1 µM
[27] = second compound 3.16 µM, first compound 0.316 µM
[28] = second compound 3.16 µM, first compound 1 µM
[29] = second compound 3.16 µM, first compound 3.16 µM
[30] = second compound 3.16 µM, first compound 10 µM
[31] = second compound 10 µM, first compound 0.0316 µM
[32] = second compound 10 µM, first compound 0.1 µM
[33] = second compound 10 µM, first compound 0.316 µM
[34] = second compound 10 µM, first compound 1 µM
[35] = second compound 10 µM, first compound 3.16 µM
[36] = second compound 10 µM, first compound 10 µM
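Further: spheroids exposed to drugs for one week before readout.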
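Wherever viability, T/C is given: percent viability relative to DMSO vehicle control wells set as 100%.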

CC(=O)O[C@H]1C(=O)[C@@]2(C)[C@H]([C@H](OC(=O)c3ccccc3)[C@]3(O)C[C@H](OC(=O)[C@H](O)[C@@H](NC(=O)c4ccccc4)c4ccccc4)C(C)=C1C3(C)C)[C@]1(OC(C)=O)CO[C@@H]1C[C@@H]2O + Cc1cccc(N(C)C(=O)C2C(O)CCN2c2nc(C)cc(C(F)(F)F)c2C#N)c1
IC50 (second compound 0.0316 µM): 0.659 µM
IC50 (second compound 0.1 µM): > 3 µM
IC50 (second compound 0.316 µM): 0.8 µM
IC50 (second compound 1 µM): 2.38 µM
IC50 (second compound 3.16 µM): 1.3 µM
IC50 (second compound 10 µM): 0.817 µM
viability, T/C (second compound 0.0316 µM, first compound 0.00949 µM): 88.1%
viability, T/C (second compound 0.0316 µM, first compound 0.03 µM): 62.9%
viability, T/C (second compound 0.0316 µM, first compound 0.0949 µM): 56.8%
viability, T/C (second compound 0.0316 µM, first compound 0.3 µM): 56.1%
viability, T/C (second compound 0.0316 µM, first compound 0.949 µM): 53.9%
viability, T/C (second compound 0.0316 µM, first compound 3 µM): 41.5%
viability, T/C (second compound 0.1 µM, first compound 0.00949 µM): 87.5%
viability, T/C (second compound 0.1 µM, first compound 0.03 µM): 65.8%
viability, T/C (second compound 0.1 µM, first compound 0.0949 µM): 62.1%
viability, T/C (second compound 0.1 µM, first compound 0.3 µM): 52.4%
viability, T/C (second compound 0.1 µM, first compound 0.949 µM): 58.3%
viability, T/C (second compound 0.1 µM, first compound 3 µM): 51.4%
viability, T/C (second compound 0.316 µM, first compound 0.00949 µM): 79.2%
viability, T/C (second compound 0.316 µM, first compound 0.03 µM): 77%
viability, T/C (second compound 0.316 µM, first compound 0.0949 µM): 66.8%
viability, T/C (second compound 0.316 µM, first compound 0.3 µM): 56.1%
viability, T/C (second compound 0.316 µM, first compound 0.949 µM): 50.5%
viability, T/C (second compound 0.316 µM, first compound 3 µM): 43.2%
viability, T/C (second compound 1 µM, first compound 0.00949 µM): 76.3%
viability, T/C (second compound 1 µM, first compound 0.03 µM): 68.6%
viability, T/C (second compound 1 µM, first compound 0.0949 µM): 61.7%
viability, T/C (second compound 1 µM, first compound 0.3 µM): 57.6%
viability, T/C (second compound 1 µM, first compound 0.949 µM): 67.2%
viability, T/C (second compound 1 µM, first compound 3 µM): 43.1%
viability, T/C (second compound 3.16 µM, first compound 0.00949 µM): 70.6%
viability, T/C (second compound 3.16 µM, first compound 0.03 µM): 61%
viability, T/C (second compound 3.16 µM, first compound 0.0949 µM): 55.4%
viability, T/C (second compound 3.16 µM, first compound 0.3 µM): 55.4%
viability, T/C (second compound 3.16 µM, first compound 0.949 µM): 57%
viability, T/C (second compound 3.16 µM, first compound 3 µM): 43.8%
viability, T/C (second compound 10 µM, first compound 0.00949 µM): 72.8%
viability, T/C (second compound 10 µM, first compound 0.03 µM): 63.2%
viability, T/C (second compound 10 µM, first compound 0.0949 µM): 55.9%
viability, T/C (second compound 10 µM, first compound 0.3 µM): 57.5%
viability, T/C (second compound 10 µM, first compound 0.949 µM): 50.8%
viability, T/C (second compound 10 µM, first compound 3 µM): 44.2%

COc1cc(C2c3cc4c(cc3C(OC3OC5COC(C)OC5C(O)C3O)C3COC(=O)C23)OCO4)cc(OC)c1O (stereo unspecified) + Cc1cccc(N(C)C(=O)C2C(O)CCN2c2nc(C)cc(C(F)(F)F)c2C#N)c1
IC50 (second compound 0.0316 µM): > 10 µM
IC50 (second compound 0.1 µM): > 10 µM
IC50 (second compound 0.316 µM): > 10 µM
IC50 (second compound 1 µM): > 10 µM
IC50 (second compound 3.16 µM): > 10 µM
IC50 (second compound 10 µM): > 10 µM
viability, T/C [1]: 83.5%
viability, T/C [2]: 62.5%
viability, T/C [3]: 72%
viability, T/C [4]: 73%
viability, T/C [5]: 56%
viability, T/C [6]: 60.1%
viability, T/C [7]: 76.8%
viability, T/C [8]: 71.4%
viability, T/C [9]: 72.3%
viability, T/C [10]: 62.7%
viability, T/C [11]: 67.7%
viability, T/C [12]: 56%
viability, T/C [13]: 95.5%
viability, T/C [14]: 84.1%
viability, T/C [15]: 77%
viability, T/C [16]: 57.6%
viability, T/C [17]: 63.9%
viability, T/C [18]: 49.1%
viability, T/C [19]: 89.3%
viability, T/C [20]: 80.8%
viability, T/C [21]: 72.2%
viability, T/C [22]: 77.9%
viability, T/C [23]: 67.8%
viability, T/C [24]: 61.3%
viability, T/C [25]: 75.8%
viability, T/C [26]: 71.8%
viability, T/C [27]: 69.9%
viability, T/C [28]: 79.3%
viability, T/C [29]: 62.7%
viability, T/C [30]: 50.2%
viability, T/C [31]: 80.1%
viability, T/C [32]: 83.9%
viability, T/C [33]: 73.6%
viability, T/C [34]: 70.9%
viability, T/C [35]: 59%
viability, T/C [36]: 60.6%

O=c1[nH]cc(F)c(=O)[nH]1 + Cc1cccc(N(C)C(=O)C2C(O)CCN2c2nc(C)cc(C(F)(F)F)c2C#N)c1
IC50 (second compound 0.0316 µM): > 10 µM
IC50 (second compound 0.1 µM): > 10 µM
IC50 (second compound 0.316 µM): > 10 µM
IC50 (second compound 1 µM): > 10 µM
IC50 (second compound 3.16 µM): > 10 µM
IC50 (second compound 10 µM): > 10 µM
viability, T/C [1]: 106%
viability, T/C [2]: 98.6%
viability, T/C [3]: 96.6%
viability, T/C [4]: 104%
viability, T/C [5]: 89.5%
viability, T/C [6]: 82.2%
viability, T/C [7]: 111%
viability, T/C [8]: 91.2%
viability, T/C [9]: 110%
viability, T/C [10]: 82.1%
viability, T/C [11]: 106%
viability, T/C [12]: 71.4%
viability, T/C [13]: 88.3%
viability, T/C [14]: 80.2%
viability, T/C [15]: 98.8%
viability, T/C [16]: 83.5%
viability, T/C [17]: 88.1%
viability, T/C [18]: 75%
viability, T/C [19]: 81.2%
viability, T/C [20]: 104%
viability, T/C [21]: 88.4%
viability, T/C [22]: 97.5%
viability, T/C [23]: 81.4%
viability, T/C [24]: 81.5%
viability, T/C [25]: 98.7%
viability, T/C [26]: 89.4%
viability, T/C [27]: 82.7%
viability, T/C [28]: 90.9%
viability, T/C [29]: 91%
viability, T/C [30]: 92.8%
viability, T/C [31]: 81.5%
viability, T/C [32]: 98.4%
viability, T/C [33]: 90%
viability, T/C [34]: 95.2%
viability, T/C [35]: 107%
viability, T/C [36]: 80.8%
